Test systems include U251 CNS; MOLT-4 leukemia; DU-145 prostate; NCI-H522 lung; COLO 205 colon; PC-3 prostate; OVCAR-3 ovarian; BT-549 breast.
What all share (experiment): inhibition of tumour cell growth, NCI panel, 48 h

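How tested: cells in 96-well plates exposed to compound for 48 hours at five concentrations. The concentration for 50% growth inhibition is given as GI50. Definition used: TGI = concentration required for complete inhibition of growth.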 Bounds are passed on as bounds.

Regarding `CCC(=O)Nc1nnc(Cc2ccc(OC)c(OC)c2)s1`, the GI50 in the assay with U251 CNS, in the assay with MOLT-4 leukemia, in the assay with DU-145 prostate, in the assay on NCI-H522 lung, with COLO 205 colon and with PC-3 prostate was greater than 100 µM each time. For the same molecule, the GI50 in the assay with OVCAR-3 ovarian and in the assay with BT-549 breast was greater than 100 µM in each case. Besides, the TGI in the assay with U251 CNS, in the assay with MOLT-4 leukemia, in the assay on DU-145 prostate, in the assay with NCI-H522 lung, with COLO 205 colon and in the assay on PC-3 prostate was greater than 100 µM in each case. The TGI with OVCAR-3 ovarian and in the assay on BT-549 breast was greater than 100 µM throughout.
Regarding `O=C1Cc2cc(CCN3CCNCC3)c(Cl)cc2N1`, the GI50 in the assay on U251 CNS was 7.79 µM; in the assay with MOLT-4 leukemia it was greater than 100 µM; with DU-145 prostate, 19.9 µM; with NCI-H522 lung, 4.86 µM; with COLO 205 colon, 19.7 µM; in the assay with PC-3 prostate it was 98.3 µM. In addition, the GI50 with OVCAR-3 ovarian was 14.1 µM; in the assay on BT-549 breast, 8.18 µM. Besides, the TGI in the assay on U251 CNS, with MOLT-4 leukemia, with DU-145 prostate, in the assay with NCI-H522 lung, in the assay on COLO 205 colon and with PC-3 prostate was greater than 100 µM in each case. For the same molecule, the TGI with OVCAR-3 ovarian and with BT-549 breast was greater than 100 µM in each case.
Turning to `Cn1c(I)c(C#C[Si](C)(C)C)c(=O)[nH]c1=O`, the GI50 is 12.8 µM in the assay with U251 CNS; 2.54 µM in the assay with MOLT-4 leukemia; 4.11 µM in the assay on DU-145 prostate; 1.68 µM in the assay with NCI-H522 lung; 1.87 µM with COLO 205 colon; 1.9 µM with OVCAR-3 ovarian. Moreover, the GI50 with BT-549 breast is 3 µM. The TGI in the assay on U251 CNS amounted to 25.5 µM; in the assay with MOLT-4 leukemia, 5.76 µM; in the assay on DU-145 prostate, 15.1 µM; with NCI-H522 lung it was 3.18 µM; in the assay on COLO 205 colon, 3.69 µM; in the assay on OVCAR-3 ovarian it was 3.39 µM. The molecule further gave a TGI in the assay on BT-549 breast of 9.21 µM.
For the molecule `CCOCCOCCOCCOCCOCCOCCOCCOCCOCCO` (tested in a mixture with another compound), the GI50 in the assay with U251 CNS was 0.987 µM; in the assay with MOLT-4 leukemia, 0.628 µM; with DU-145 prostate it was 2.6 µM; in the assay on COLO 205 colon, 1.28 µM; with PC-3 prostate it was 1.01 µM; in the assay with OVCAR-3 ovarian, 0.476 µM. Besides, the GI50 with BT-549 breast is 1.29 µM. Further, the TGI came to 4.47 µM in the assay on U251 CNS; 1.69 µM in the assay on MOLT-4 leukemia; 15.2 µM in the assay on DU-145 prostate; 4.23 µM in the assay with COLO 205 colon; 6.5 µM in the assay with PC-3 prostate; 4.63 µM in the assay on OVCAR-3 ovarian. This molecule yielded a TGI in the assay on BT-549 breast of 4.75 µM.
Consider `CCS(=O)(=O)c1ccc(OC)c(Nc2ncc(-c3cccc(F)c3)o2)c1`, for which the GI50 in the assay on U251 CNS, in the assay on MOLT-4 leukemia, in the assay with DU-145 prostate, with NCI-H522 lung, with COLO 205 colon and in the assay on PC-3 prostate was greater than 25 µM in each case. The GI50 in the assay with OVCAR-3 ovarian and in the assay with BT-549 breast was greater than 25 µM in each case. The TGI in the assay with U251 CNS, in the assay on MOLT-4 leukemia, with DU-145 prostate, in the assay with NCI-H522 lung, in the assay on COLO 205 colon and in the assay with PC-3 prostate was greater than 25 µM throughout. Besides, the TGI with OVCAR-3 ovarian and with BT-549 breast was greater than 25 µM each time.
`CC1=C(C(=O)Nc2ccc(Cl)c(Cl)c2)C(c2cccc(Cl)c2)NC(=S)N1` (stereo not given): the GI50 is 10.7 µM in the assay on U251 CNS; 23.2 µM with MOLT-4 leukemia; 14.4 µM with DU-145 prostate; 17.4 µM with COLO 205 colon; 14.1 µM with PC-3 prostate; 10.5 µM in the assay on OVCAR-3 ovarian. Besides, the GI50 in the assay with BT-549 breast is 16.4 µM. The TGI with U251 CNS was 29.6 µM; in the assay on MOLT-4 leukemia, greater than 50 µM; in the assay on DU-145 prostate, 44 µM; with COLO 205 colon, greater than 50 µM; in the assay with PC-3 prostate it was greater than 50 µM; in the assay on OVCAR-3 ovarian it was 37.5 µM. This molecule yielded a TGI in the assay with BT-549 breast of 38.6 µM.
As for `O=C(C(=CN1CCN(C(=O)c2ccco2)C1=S)C(=O)c1ccccc1)c1ccccc1`, the GI50 in the assay with U251 CNS was 2.66 µM; in the assay with MOLT-4 leukemia, 15.2 µM; in the assay with DU-145 prostate, 12.4 µM; in the assay on COLO 205 colon, 20 µM; in the assay on PC-3 prostate it was 23.6 µM; with OVCAR-3 ovarian, 7.32 µM. Moreover, the GI50 in the assay on BT-549 breast was 9.96 µM. For the same molecule, the TGI is 25.8 µM with U251 CNS; greater than 50 µM in the assay with MOLT-4 leukemia; greater than 50 µM in the assay on DU-145 prostate; greater than 50 µM in the assay with COLO 205 colon; greater than 50 µM in the assay with PC-3 prostate; 23 µM with OVCAR-3 ovarian. The molecule further registered a TGI with BT-549 breast of 26.4 µM.
Consider `O=C1/C(=C/c2ccc(C(F)(F)F)cc2)COc2ccc(O)c(O)c21`, for which the GI50 in the assay with U251 CNS is 0.703 µM; in the assay with DU-145 prostate, 1.6 µM; in the assay on NCI-H522 lung, 0.216 µM; in the assay with COLO 205 colon, 1.58 µM; in the assay on OVCAR-3 ovarian it was 0.514 µM; with BT-549 breast, 1.86 µM. The TGI stood at 2.05 µM in the assay on U251 CNS; 3.19 µM in the assay with DU-145 prostate; 0.515 µM with NCI-H522 lung; 3.06 µM in the assay with COLO 205 colon; 1.84 µM in the assay on OVCAR-3 ovarian; 3.58 µM with BT-549 breast.
Consider `N#CC1=C(N)OC2=C(CCOc3c2ccc2ccccc32)C1c1ccc(Br)cc1` (stereo not given), for which the GI50 is 11.3 µM in the assay on MOLT-4 leukemia; greater than 100 µM in the assay on DU-145 prostate; greater than 100 µM in the assay with NCI-H522 lung; 29 µM in the assay with COLO 205 colon; 19.9 µM in the assay with PC-3 prostate; 15.1 µM in the assay on OVCAR-3 ovarian. Besides, in the assay with BT-549 breast, the GI50 is greater than 100 µM. The TGI was 49 µM in the assay with MOLT-4 leukemia; greater than 100 µM in the assay with DU-145 prostate; greater than 100 µM in the assay on NCI-H522 lung; greater than 100 µM in the assay on COLO 205 colon; 53.6 µM in the assay with PC-3 prostate; 39.4 µM in the assay on OVCAR-3 ovarian. This molecule also gave a TGI in the assay on BT-549 breast greater than 100 µM.

The record behind these values is PubChem BioAssay (NCI).
